Positions of bridges follow the written chain, without caps; N, C: chain ends. Residues, ends and D or L forms follow the SMILES beside them.
Tests used:
E. coli O157:H7 [1] = experiment: Antimicrobial activity (killing) curves; format: cell-based, Escherichia coli; settings: 4 × MIC; log phase, ~5 × 10^4 CFU/mL in LB, 37°C; plate counts at 0, 2, 4, 6 h; n = 6
Method: To further address the activity of recombinant MccJ25, antimicrobial activity curves and Live/Dead viability assay were performed. A single colony of S. Pullorum CVCC1791, S. Typhimurium ATCC14082, and E. coli O157:H7 was inoculated into 5 mL of LB. The culture was then incubated at 37°C with shaking at 200 rpm overnight. The following day, the culture was diluted 1:100 in fresh LB and again incubated at 37°C with shaking at 200 rpm. For antimicrobial activity, the bacteria were grown until they reached log phase. Approximately 5 × 10^4 CFU/mL bacteria were inoculated into 2 mL of LB containing different concentrations of the recombinant MccJ25 (0, 1 × MIC, 2 × MIC, and 4 × MIC). The cultures (0.1 mL) were serially diluted with PBS and plated on LB and TSA agar at 0, 2, 4, and 6 h. The plates were incubated at 37°C overnight to count colony. Colonies were counted to determine CFU/mL. The experiment was conducted with two replicates in three independent trials.

S. Pullorum [2] = experiment: Live/Dead BacLight viability assay; format: cell-based, Salmonella Pullorum; settings: at the MIC level, 2 h at 37°C, 5 × 10^4 CFU/mL in LB; fluorescence microscopy
Method: A Live/Dead BacLight Bacterial Viability Kit 7 (Molecular Probes, Inc., Eugene) was used to test bacterial viability. Briefly, 5 × 10^4 CFU/mL S. Pullorum, S. Typhimurium, and E. coli O157:H7 were inoculated into 1 mL of LB containing recombinant MccJ25 at the MIC level specific for each pathogen. Bacterial cultures were incubated at 37°C for 2 h and then incubated in the dark at ambient temperature with SYTO 9 and propidium iodide for 15 min. Bacteria were observed using a fluorescence microscope (EVOS XL Cell Imaging System).

S. Pullorum [3] = experiment: Antimicrobial activity in different growth phases, viable plate counting; format: cell-based, Salmonella Pullorum; settings: LB, n = 6; for time to reduction to undetectable levels: early- or late-log phase cells, plate counts at 0, 12, 24, 48 h; for time to reduction to non-detectable levels: stationary phase cells, plate counts
Method: The effect of growth phase on the anti-Salmonella and -E. coli O157:H7 activity of recombinant MccJ25 was determined by the viable plate counting method, as described previously ([Ma et al., 2016]; [Fan et al., 2017]), with minor modifications. Cultures of the strains in the early-log phase, late-log phase and stationary phase were washed, concentrated and diluted with sterilized phosphate-buffered saline (PBS) to approximately 10^7 CFU/mL. Then, 1 mL was incubated individually in 9 mL of PBS to reach an approximate 10^6 CFU/mL final concentration. The bacterial cells were then inoculated into 5 mL of LB containing different concentrations of MccJ25 (0, 1 × MIC, 2 × MIC, and 4 × MIC). At 0, 12, 24, and 48 h post incubation, the cultures (0.1 mL) were serially diluted with PBS and plated on LB and TSA agar. The plates were incubated at 37°C overnight to count colony. Colonies were counted to determine CFU/mL. The experiment was conducted with two replicates in three independent trials.

S. Typhimurium = experiment: Antimicrobial activity in biological food products (skim milk, egg yolk, mincemeat extract); format: cell-based, Salmonella Typhimurium; settings: 4 × MIC, SKM, 37°C; for viable bacteria after 24 h in the three food products: SEY, SMS, data not shown
Method: To further investigate the effects of recombinant MccJ25 on Salmonella and E. coli O157:H7 in different biological food products, sterile skim milk, egg yolk and mincemeat (pork) extract were collected and used as described previously with minor modifications ([Sable et al., 2000]). The skim milk, egg and mincemeat samples were purchased from a Carrefour store in Beijing. Specimens were kept on ice packs in coolers until they reached the laboratory, where they were stored at 4°C. The skim milk (SKM) and mincemeat supernatant (SMS) were autoclave sterilized at 121°C for 20 min. After autoclaving, the SKM and SMS samples were stored at 4°C for further use. The eggs were sterilized with 75% ethanol and transferred into an exceptionally clean bench to collect the egg yolk (SEY). The SEY was diluted 1:1 with sterile distilled water. Biological product samples were mixed with a final concentration of 4 × MIC of recombinant MccJ25 solution in sterile saline water (0.85%). They were then inoculated with S. Pullorum, S. […] Sterilized saline water (SSW) with the recombinant MccJ25 was utilized for comparison. This assay was performed to obtain the desired quantity of cells. The mixtures were tested after 24 h of incubation at 37°C with shaking (250 rpm). After incubation, Salmonella species and E. coli O157:H7 were serially diluted with PBS and plated on LB and TSA agar. The plates were incubated at 37°C overnight to count colony. Colonies were counted to determine CFU/mL. The experiment was conducted with two replicates in three independent trials.

E. coli O157:H7 [4] = experiment: as above; format: cell-based, Escherichia coli; settings: 4 × MIC, SKM, 37°C; for viable bacteria after 24 h in the three food products: SEY, SMS, data not shown
S. Pullorum [5] = experiment: Thermal stability, inhibition zone read-out; format: physicochemical, Salmonella Pullorum; settings: temperatures as high as 121°C for 20 min; 150 μL of 1 × MIC; Oxford cup inhibition zone on LB agar, overnight 37°C; three replicate experiments
Method: […] The assays were conducted as described previously ([Chen et al., 2009]; [Meng et al., 2019]), with slight modifications. LB agar inoculated with the indicator bacteria S. Pullorum (approximately 10^5 viable cells per mL) was poured over plates fitted with Oxford cups to make wells. 150 μL of 1 × MIC final concentration of recombinant MccJ25 samples previously treated under various conditions were added to the wells. The agar overlays were incubated overnight at 37°C, and the inhibition zones were recorded.

S. Pullorum [6] = experiment: pH stability, inhibition zone read-out; format: physicochemical, Salmonella Pullorum; settings: pH 2.0 to 9.0 for 2 h; 150 μL of 1 × MIC; Oxford cup inhibition zone on LB agar, overnight 37°C; three replicate experiments
Method: Assays of the antibacterial activity of recombinant MccJ25 at different temperatures (25, 37, 45, 55, 65, 75, 85, and 95°C for 20 min) and different pH values (pH 2.0, 3.0, 4.0, 5.0, 6.0, 7.0, 8.0, and 9.0 for 2 h) were performed. The assays were conducted as described previously ([Chen et al., 2009]; [Meng et al., 2019]), with slight modifications. LB agar inoculated with the indicator bacteria S. Pullorum (approximately 10^5 viable cells per mL) was poured over plates fitted with Oxford cups to make wells. 150 μL of 1 × MIC final concentration of recombinant MccJ25 samples previously treated under various conditions were added to the wells. The agar overlays were incubated overnight at 37°C, and the inhibition zones were recorded.

[7] = SEY, and SMS, inoculum 10^6 CFU/mL, plate counts, n = 6

Structure (SMILES): CC[C@H](C)[C@H](NC(=O)CNC(=O)[C@@H](NC(=O)[C@H](Cc1ccccc1)NC(=O)[C@H](Cc1ccc(O)cc1)NC(=O)[C@@H]1CCC(=O)NCC(=O)NCC(=O)N[C@@H](C)C(=O)NCC(=O)N[C@@H](Cc2c[nH]cn2)C(=O)N[C@@H](C(C)C)C(=O)N2CCC[C@H]2C(=O)N1)C(C)C)C(=O)NCC(=O)N[C@H](C(=O)N1CCC[C@H]1C(=O)N[C@H](C(=O)N[C@@H](CO)C(=O)N[C@@H](Cc1ccccc1)C(=O)N[C@@H](Cc1ccc(O)cc1)C(=O)NCC(=O)O)[C@@H](C)CC)[C@@H](C)O [recombinant MccJ25, microcin J25] (GGAGHVPEYFVGIGTPISFYG-OH; lactam N-8 (inferred); C-terminus assumed)
- incubation time after which the pathogen was eliminated (killing curve) (E. coli O157:H7 [1]): 6 h
- bactericidal activity, Live/Dead staining (SYTO 9 / propidium iodide) (S. Pullorum [2]): excellent bactericidal activity
- time to reduction to undetectable levels (S. Pullorum [3]; 8 μg/mL): ≤ 24 h
- time to reduction to undetectable levels (S. Pullorum [3]; 4 × MIC): ≤ 12 h
- time to reduction to non-detectable levels (S. Pullorum [3]; 8 μg/mL): ≤ 48 h
- time to reduction to non-detectable levels (S. Pullorum [3]; 16 μg/mL): ≤ 24 h
- viable bacteria after 24 h in the three food products (S. Typhimurium; inoculum 10^3 CFU/mL): no viable bacteria were detected
- viable bacteria after 24 h in the three food products (S. Typhimurium; inoculum 10^4 CFU/mL): no bacteria were detected
- CFU reduction after 24 h (S. Typhimurium; [7]): approximately 10^3 CFU/mL
- viable bacteria after 24 h in the three food products (E. coli O157:H7 [4]; inoculum 10^3 CFU/mL): no viable bacteria were detected
- viable bacteria after 24 h in the three food products (E. coli O157:H7 [4]; inoculum 10^4 CFU/mL): no bacteria were detected
- CFU reduction after 24 h (E. coli O157:H7 [4]; [7]): approximately 10^3 CFU/mL
- influence of temperature on activity against S. Pullorum (thermal stability) (S. Pullorum [5]): no influence
- effect of pH on activity against S. Pullorum (pH stability) (S. Pullorum [6]): no effect

— article PMC6718478, “A Comprehensive Antimicrobial Activity Evaluation of the Recombinant Microcin J25 Against the Foodborne Pathogens Salmonella and E. coli O157:H7 by Using a Matrix of Conditions” (Frontiers in Microbiology, 2019)
